Results taken from publication PMC9571608, “Detection of Bitterness in Vitamins Is Mediated by the Activation of Bitter Taste Receptors” (Nutrients, 2022).
Several values for one entry are separate records, joined by “and”; a condition that tells them apart may be missing. Identical values can stand only once. Counter-ions that a name gives are not always drawn.

Key:
TAS2R38 = target: T1, TAS2R38 (Homo sapiens, UniProt P59533); assay: Calcium mobilization assay, cells transiently expressing TAS2R38; type: cell-based; as to TAS2R Receptor 38 response: key: +: positive responses (lines with background color)
T1 construct: expressed in transfected cells; host or cells: HEK293T cells stably expressing Gα16gust44
T1 sequence (P59533 1-333): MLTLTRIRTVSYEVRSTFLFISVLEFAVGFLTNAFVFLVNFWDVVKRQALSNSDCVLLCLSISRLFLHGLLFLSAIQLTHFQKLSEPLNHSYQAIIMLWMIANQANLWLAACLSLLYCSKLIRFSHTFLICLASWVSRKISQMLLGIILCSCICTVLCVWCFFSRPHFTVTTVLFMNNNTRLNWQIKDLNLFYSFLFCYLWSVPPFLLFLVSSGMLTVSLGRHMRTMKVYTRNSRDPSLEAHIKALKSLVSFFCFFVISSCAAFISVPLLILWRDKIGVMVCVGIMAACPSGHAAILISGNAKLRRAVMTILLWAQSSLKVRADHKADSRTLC
Procedure: (§1) A functional expression study was carried out as described previously. TAS2R expression vectors (pcDNA5FRT-SST3-TAS2R-HSV and pEAK-10-SST3-TAS2RHSV) were kindly provided by Wolfgang Meyerhof (German Institute of Human Nutrition Postdam-Rehbruecke, Nuthetal, Germany). For all constructs, the N-terminus contained the first 45 amino acids of rat somatostatin 3 (SST3) to improve membrane targeting. A sequence coding for a herpes simplex virus glycoprotein D epitope (HSV-tag) was added at the C-terminus to allow immunocytochemical detection of the receptor [13, 14, 23, 24]. HEK293T cells stably expressing the chimeric G protein α subunit Gα16gust44 [25, 26] were seeded into poly-D-lysine-coated 96-well black plates (0.35 × 10^5 cells/well) in high-glucose DMEM supplemented with 2 mM GlutaMAX, 10% dialysed fetal bovine serum penicillin/streptomycin, and G418 (400 µg/mL), and then placed under a humidified and controlled atmosphere (37 °C and 6.3% CO2) overnight. […]
(§2) Approximately 24–26 h after transfection, cells were loaded for 1 h at 37 °C with Fluo4-AM (2 µM, Molecular Probes), which had been previously mixed with pluronic acid F-127 (0.01%) in C1 buffer (130 mM NaCl, 5 mM KCl, 10 mM HEPES, 2 mM CaCl2, 10 mM pyruvic acid, pH 7.4, 300 mOsm) containing 2.5 mM probenecid (Life Technologies). […] The calcium signal was recorded for 90 s after injection of a range of compounds using a Flexstation 3 fluorometric imaging plate reader (Molecular Devices) at a wavelength of 510 nm after excitation at 488 nm. All substance concentrations were measured in triplicate in at least three independent experiments. […]
(§3) To obtain a dose–response curve, the ratio between the maximum variation in fluorescence after ligand addition and the initial fluorescence before addition (ΔF/F0) was calculated for each well. The fluorescence signals collected for each replicate were averaged for the same substance concentration, and the fluorescence changes in the corresponding mock-transfected cells were subtracted. […]

[1] = system: human bitter taste detection (sensory panel); assay: Human bitter taste detection threshold, three-alternative forced choice (3-AFC), BET method; type: in vivo; conditions: 32 panelists, group BET
Text: Based on bibliographic studies, preliminary works performed in the laboratory, and the results of taste receptor functional assays, the following vitamins were included in this study: vitamin B1 (thiamine hydrochloride), vitamin B2 (riboflavin phosphate), vitamin B3 (niacinamide), and vitamin B6 (pyridoxine hydrochloride). These vitamins are present in high quantities in nutritional supplements, safe for humans (except at very high concentrations), and can induce a strong bitter taste. These concentrations were determined according to the toxicity threshold of each compound tested and the maximum daily reference intake. These compounds were prepared in commercial mineral water (Evian®, Evian, France).
The threshold values for bitter taste detection were determined by 32 panelists (18–65 years old, 14 males and 18 females, without sensory perception disorders, food allergies, drug treatments, or heart, lung, or cardiac pathologies) who were recruited from Dijon (France) and the surrounding areas. An ethical committee approved this study (Personal Protection Committee of Rennes—Ouest V, protocol code 2018A01342-53), and all panelists signed an informed consent form. A sensory test called three-alternative forced choice (3-AFC) was used in accordance with the protocol detailed in NF ISO 13301. Before performing the measurement sessions, four training sessions were provided to familiarize the panelists with the bitter taste, test procedure, and signal acquisition software. In this discriminative test, six series consisting of three samples, which were each encoded using randomly generated three-digit numbers, were simultaneously delivered to the panelists. The six 3-AFC presentations contained two blank samples (commercial mineral water, manufacturer: Evian, France) and ascending concentrations of vitamin solution. Before the test, subjects were advised that each presentation consisted of two samples that contained only water and one sample that contained a taste. For each 3-AFC presentation, subjects were asked to take the samples sequentially from left to right. Then, they placed the entirety of each sample solution in their mouths and carefully gargled to ensure that the solution was dispersed throughout the mouth. A sip-and-spit procedure was used; subjects rinsed their mouths with commercial mineral water between each series of tests. Subjects were asked to indicate which of the samples contained the stimulus. If a subject perceived no difference between the three samples, he or she was asked to choose one (forced choice). The sensory tests were conducted in a room devoted to sensory evaluation. For the case of colored samples, black-colored glasses were used, and tastings were performed under red light. […] The aim of this sensory analysis was to determine the bitter taste detection threshold for these vitamins and not an olfactory detection threshold. Therefore, the measurements were conducted using pinched nose clips. The subjects waited one minute between each series and had to thoroughly rinse their mouths. Four repetitions were performed per subject for each vitamin to obtain statistically interpretable results, which represented a total of 288 samples. During the sensory analysis session, a bitterness detection threshold of only two vitamins was used (36 samples) to avoid the ingestion of a high vitamin quantity, which is potentially harmful. The answers from the panelists were collected using software dedicated to sensory analysis (FIZZ acquisition V.2.51 software).
The best estimate threshold (BET) method was used to determine the bitter detection threshold for four vitamins. The individual best-estimated detection threshold (BET) was proposed in ASTM E679-04. ASTM E679-04 is a standard practice for the determination of odor and taste thresholds via a forced-choice ascending concentration series method of limits. […]

TAS2R7 = target: T2, TAS2R7 (Homo sapiens, UniProt Q9NYW3); assay: Calcium mobilization assay, cells transiently expressing TAS2R7; type: cell-based; parameters: expressed in transfected cells; host or cells: HEK293T cells stably expressing Gα16gust44; as to TAS2R Receptor 7 response: key: +: positive responses (lines with background color)
T2 sequence (Q9NYW3 1-318): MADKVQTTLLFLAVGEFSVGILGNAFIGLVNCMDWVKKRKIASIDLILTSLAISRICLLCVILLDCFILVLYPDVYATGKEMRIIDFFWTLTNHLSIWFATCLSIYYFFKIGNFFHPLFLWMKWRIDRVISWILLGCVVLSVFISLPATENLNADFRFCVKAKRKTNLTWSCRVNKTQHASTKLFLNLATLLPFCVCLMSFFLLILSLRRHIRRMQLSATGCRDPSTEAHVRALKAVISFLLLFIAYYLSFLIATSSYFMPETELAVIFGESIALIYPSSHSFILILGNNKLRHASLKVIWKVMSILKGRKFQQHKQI
Procedure: A functional expression study was carried out as described previously. TAS2R expression vectors (pcDNA5FRT-SST3-TAS2R-HSV and pEAK-10-SST3-TAS2RHSV) were kindly provided by Wolfgang Meyerhof (German Institute of Human Nutrition Postdam-Rehbruecke, Nuthetal, Germany). For all constructs, the N-terminus contained the first 45 amino acids of rat somatostatin 3 (SST3) to improve membrane targeting. A sequence coding for a herpes simplex virus glycoprotein D epitope (HSV-tag) was added at the C-terminus to allow immunocytochemical detection of the receptor [13, 14, 23, 24]. HEK293T cells stably expressing the chimeric G protein α subunit Gα16gust44 [25, 26] were seeded into poly-D-lysine-coated 96-well black plates (0.35 × 10^5 cells/well) in high-glucose DMEM supplemented with 2 mM GlutaMAX, 10% dialysed fetal bovine serum penicillin/streptomycin, and G418 (400 µg/mL), and then placed under a humidified and controlled atmosphere (37 °C and 6.3% CO2) overnight. After 24–26 h of incubation, cells were transiently transfected with TAS2R expression plasmids (120 ng/well) using Lipofectamine 2000 reagent (0.4 µL/well) (Thermo Fisher Scientific, Illkirch-Graffenstaden, France).
Approximately 24–26 h after transfection, cells were loaded for 1 h at 37 °C with Fluo4-AM (2 µM, Molecular Probes), which had been previously mixed with pluronic acid F-127 (0.01%) in C1 buffer (130 mM NaCl, 5 mM KCl, 10 mM HEPES, 2 mM CaCl2, 10 mM pyruvic acid, pH 7.4, 300 mOsm) containing 2.5 mM probenecid (Life Technologies). Approximately one hour after loading, the plate was rinsed twice with 100 µL of C1 buffer. The calcium signal was recorded for 90 s after injection of a range of compounds using a Flexstation 3 fluorometric imaging plate reader (Molecular Devices) at a wavelength of 510 nm after excitation at 488 nm. All substance concentrations were measured in triplicate in at least three independent experiments. As cell transfection and substances can interfere with cellular viability and calcium assays, all compounds were tested on mock-transfected cells (cells transfected with empty vectors) on the same plates for all substance concentrations used.
(§4) To obtain a dose–response curve, the ratio between the maximum variation in fluorescence after ligand addition and the initial fluorescence before addition (ΔF/F0) was calculated for each well. The fluorescence signals collected for each replicate were averaged for the same substance concentration, and the fluorescence changes in the corresponding mock-transfected cells were subtracted. […] The dose–response data were fitted, and EC50 values were calculated using a four-parameter logistic equation using SigmaPlot software (Systat Software, San Jose, CA, USA). […]

25 human TAS2Rs = assay: Taste receptor functional assay, panel of 25 human TAS2Rs; type: cell-based; conditions: lowest concentration that could elicit TAS2R activation
Procedure: A functional expression study was carried out as described previously. TAS2R expression vectors (pcDNA5FRT-SST3-TAS2R-HSV and pEAK-10-SST3-TAS2RHSV) were kindly provided by Wolfgang Meyerhof (German Institute of Human Nutrition Postdam-Rehbruecke, Nuthetal, Germany). For all constructs, the N-terminus contained the first 45 amino acids of rat somatostatin 3 (SST3) to improve membrane targeting. A sequence coding for a herpes simplex virus glycoprotein D epitope (HSV-tag) was added at the C-terminus to allow immunocytochemical detection of the receptor [13, 14, 23, 24]. […]
as §2

TAS2R14 = target: T3, TAS2R14 (Homo sapiens, UniProt Q9NYV8); assay: Calcium mobilization assay, cells transiently expressing TAS2R14; type: cell-based; as to TAS2R Receptor 14 response: key: +: positive responses (lines with background color)
T3 construct: expressed in transfected cells; host or cells: HEK293T cells stably expressing Gα16gust44
T3 sequence (Q9NYV8 1-317): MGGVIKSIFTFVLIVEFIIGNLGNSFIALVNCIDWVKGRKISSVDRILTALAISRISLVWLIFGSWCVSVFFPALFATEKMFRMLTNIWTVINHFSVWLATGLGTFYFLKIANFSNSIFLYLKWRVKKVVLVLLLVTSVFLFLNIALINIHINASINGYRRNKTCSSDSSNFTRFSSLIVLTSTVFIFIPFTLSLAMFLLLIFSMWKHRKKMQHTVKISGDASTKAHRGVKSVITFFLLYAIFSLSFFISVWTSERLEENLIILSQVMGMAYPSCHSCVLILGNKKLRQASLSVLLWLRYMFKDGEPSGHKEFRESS
Procedure: as §1, §2, §3

TAS2R10 = target: T4, TAS2R10 (Homo sapiens, UniProt Q9NYW0); assay: Calcium mobilization assay, cells transiently expressing TAS2R10; type: cell-based; as to TAS2R Receptor 10 response: key: +: positive responses (lines with background color)
T4 construct: expressed in transfected cells; host or cells: HEK293T cells stably expressing Gα16gust44
T4 sequence (Q9NYW0 1-307): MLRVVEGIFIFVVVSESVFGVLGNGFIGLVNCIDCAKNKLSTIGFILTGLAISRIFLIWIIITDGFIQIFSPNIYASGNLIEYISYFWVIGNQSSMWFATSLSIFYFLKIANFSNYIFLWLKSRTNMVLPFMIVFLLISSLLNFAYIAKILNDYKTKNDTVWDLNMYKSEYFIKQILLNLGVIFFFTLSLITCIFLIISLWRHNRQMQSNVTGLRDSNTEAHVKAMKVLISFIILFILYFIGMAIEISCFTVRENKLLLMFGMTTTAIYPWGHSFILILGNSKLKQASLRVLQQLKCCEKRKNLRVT
Procedure: as §1
Approximately one hour after loading, the plate was rinsed twice with 100 µL of C1 buffer. The calcium signal was recorded for 90 s after injection of a range of compounds using a Flexstation 3 fluorometric imaging plate reader (Molecular Devices) at a wavelength of 510 nm after excitation at 488 nm. All substance concentrations were measured in triplicate in at least three independent experiments. […]
as §4

human taste perception = system: human taste perception; parameters: method as in doi:10.3758/BF03203878; conditions: concentration omitted in the cited paper; cited from earlier work
[2] = HEK293T-Gα16gust44 cells, calcium signal, up to M.A.C
[3] = aqueous solution (mineral water), nose clips

Compound: CC1=C(/C=C/C(C)=C/C=C/C(C)=C/C=O)C(C)(C)CCC1 [Vitamin A, retinal]
- TAS2R38 activation (TAS2R38; 1 mM): strongly activate
- TAS2R Receptor 38 response (TAS2R38; [2]): +
- EC50 (TAS2R38; TAS2R38-expressing HEK293T cells, Fluo-4 calcium response, read-out: EC50 (half-maximal TAS2R38 activation)): 0.29 ± 0.2 mM

Compound: Cc1cc2nc3c(=O)[nH]c(=O)nc-3n(C[C@H](O)[C@H](O)[C@H](O)COP(=O)(O)O)c2cc1C [Vitamin B2, riboflavin phosphate]
- Human Bitter Taste Detection Threshold ([1]; Figure 3, aqueous solution): 0.65 mM
- Human Bitter Taste Detection Threshold [1, 3]: 0.65 mM

Compound: NC(=O)c1cccnc1 [Vitamin B3, niacinamide]
- Human Bitter Taste Detection Threshold ([1]; Figure 3, aqueous solution): 5.5 mM
- Human Bitter Taste Detection Threshold [1, 3]: 5.5 mM and 5.50 mM

Compound: Cc1ncc(CO)c(CO)c1O [Vitamin B6, pyridoxine hydrochloride]
- TAS2R7 response (TAS2R7; 100 mM): robust response
- TAS2R Receptor 7 response (TAS2R7; [2]): +
- EC50 (TAS2R7; TAS2R7-expressing HEK293T cells, Fluo-4 calcium response, read-out: EC50 (half-maximal TAS2R7 activation)): 25.5 ± 11.8 mM
- Cellular Bitter Taste Detection Threshold (25 human TAS2Rs): 1 mM and 1.00 mM
- Human Bitter Taste Detection Threshold ([1]; Figure 3, aqueous solution): 5.2 mM
- Human Bitter Taste Detection Threshold ([1]; aqueous solution (mineral water), nose clips, listed as B6): 5.20 mM
- Human Bitter Taste Detection Threshold ([1]; aqueous solution (mineral water), nose clips, listed as vitamin B6): 5.2 mM
- TAS2R14 response (TAS2R14; 100 mM): robust response
- TAS2R Receptor 14 response (TAS2R14; [2]): +
- EC50 (TAS2R14; TAS2R14-expressing HEK293T cells, Fluo-4 calcium response, read-out: EC50 (half-maximal TAS2R14 activation)): 10.5 ± 1.47 mM

Compound: C=C1CC[C@H](O)C/C1=C/C=C1\CCC[C@]2(C)[C@@H]([C@H](C)CCCC(C)C)CC[C@@H]12 [Vitamin D, cholecalciferol]
- TAS2R10 activation (TAS2R10; 1 mM): strongly activate
- TAS2R Receptor 10 response (TAS2R10; [2]): +
- EC50 (TAS2R10; read-out: EC50 (half-maximal TAS2R10 activation), TAS2R10-expressing HEK293T cells, Fluo-4 calcium response): 0.25 ± 0.2 mM
- Taste described by sensory analysis (human taste perception): tasteless
